For data set [1], the system named is oxotremorine syndrome in the mouse. The note with it: for Anticholinergic activ. (antagonism against oxotremorine syndrome): in vivo, po, 100 mg/kg. The protocol:
(§1) Considering that some anti-ulcer agents display, as does atropine, a remarkable but undesired anticholinergic activity, the compound of the present invention was also assessed for its antagonism against the syndrome induced by intraperitoneally (i.p.) administered oxotremorine in mice, according to the method described by G. P. Leszkovsky and L. Tardos (Europ. J. Pharmac. 1971, 15, 310). Given test compound embodiments were administered to groups of 5 male mice, 20-25 g body weight, at the screening dose of 100 mg/kg per os. The degree of peripheral cholinergic activation induced by oxotremorine was measured b salivation and lachrymation, and the degree of central cholinergic activation by the severity of tremors and hypothermia. […] The approximate acute toxicity (LD50) of the compounds of the invention was determined in the mouse and in the rat by single oral administration of increasing doses and measured on the seventh day after treatment. […] Ranitidine, the well known anti-ulcer agent, was used as comparison compound.

Data set [2] relates to gastric ulcers induced in rats by stress. The data set can be described thus: inhibition of stress ulcers in rats (restraint in water at 23° C. for 4 hours). It counts as in vivo, rat (Charles River male). As to conditions: po, rat, p.o. one hour before stress, number of ulcers. The protocol:
The anti-ulcerogenic activity of the compound of the present invention is shown also by the fact that embodiments of the same are active in the test of inhibition of stress ulcers in rats (restraint in water at 23° C. for 4 hours), according to the method of M. Usardi et al. (Prostaglandins, 8, 43, 1974). The tested compounds were administered per os one hour before the stress. Six Charles River male rats (140±10 g body weight), which had fasted for 16 hours, were used for each experimental group. At the end of the stress, the rats were killed and the gastric ulcers evaluated by counting them. The inhibition of gastric ulcerations, evaluated as percentage inhibition of ulcer index (number of ulcers), was expressed as ED50.

Data set [3] concerns ASA induced gastric ulcers in rats. Description: inhibition of acetyl salicyclic acid (ASA) induced gastric ulcers in rats. In kind it is in vivo, rat (male Sprague Dawley). The note with it: po, 4 h, rat, p.o. 60 min before ASA 100 mg/kg, dose reducing ulcer index by 50%. As for the experimental part:
The anti-ulcerogenic activity of the present compound is shown, for example, by the fact that embodiments of the present compound are active in the test of inhibition of acetyl salicyclic acid (ASA) induced gastric ulcers in rats as described by M. Hemmati et al in Pharmacology, 9, 374, 1973. Male Sprague Dawley rats [Crl: CD (SD) BR] (Charles River Italy) weighing 190±10 g, which had fasted for 15 hours, but given free access to water, were administered ASA (100 mg/kg per os in 0.2 ml/100 g b.w.) 60 minutes after the oral treatment with the tested compounds. Gastric ulcerations were evaluated 4 hours after ASA treatment. The inhibition of gastric ulcerations, evaluated as percentage inhibition of ulcer index (sum of ulcer length in millimeters), was expressed as ED50 (dose which reduces gastric ulcerations by 50% in comparison with control rats).

In data set [4] the test system is basal gastric secretion output HCl. The data set can be described thus: gastric anti-secretory activity in rats, pylorus ligature technique. In kind it is in vivo, rat (Sprague-Dawley male). The note with it: Column 4, rat, intraduodenal (i.d.), 4 hours, read-out: Antisecretory activ.: inhibition of basal gastric secretion output HCl (ED50). The protocol: The gastric anti-secretory activity of the compound of the present invention was evaluated in rats by the pylorus ligature technique (H. Shay et al, Gastroenterology 5, 43 1945). Six Sprague-Dawley male rats (110-130 g body weight) for each group were used. Twenty-four hours before the test, the rats were deprived of food while water was maintained. On the day of operation, the pylorus was ligated under light ether anaesthesia. Four hours after the ligature the rats were sacrificed, the stomach secretion collected, centrifuged at 3500 r.p.m. for 10 minutes and the volume, less sediment, was determined. The amount of free hydrochloric acid in the gastric juice was determined by titration against 0.1N sodium hydroxide to an end point of pH 7. All the compounds were injected intraduodenally at the time of ligature. The results, expressed as ED50 mg/kg (the dose which reduced the output of hydrochloride acid by 50% in comparison with control rats) are reported in column 4 of Table 1.

Data set [5] is described as follows: approximate acute toxicity (LD50) in the mouse, single oral administration. As to conditions: in vivo. As for the experimental part:
as §1

The target in the next data set is T1, histamine H2-receptor (Cavia porcellus, UniProt P47747).
T1 construct: histamine-induced rate increase
The data set can be described thus: histamine H2-receptor antagonist activity in vitro on the guinea pig right atrium. As to conditions: Column 5; guinea pig atria in vitro; screening dose 1 × 10^-5 M; 'More active' continues 'than Ranitid.'; active if it shifts histamine curve right at ≤1×10^-5 M. The protocol:
The compound of the present invention was assayed for histamine H2 -receptor antagonist activity in vitro on the guinea pig right atrium. Male guinea pigs were killed by a blow on the head and the heart was quickly excised and placed in oxygenated Ringer Lock solution of the following composition (g/l): NaCl 9, KCl 0.42, CaCl2 0.24, NaHCO3 0.5, Glucose 1. Atria were dissected away from the rest of the heart, freed from connective tissue, suspended in a 20 ml organ bath containing Ringer Locke solution thermoregulated at 37° C., and carboxygenated with 95% O2 and 5% CO2. Atria spontaneously beating were allowed to adjust to the bath conditions for at least 30 minutes prior to the experiment. Histamine was added to the bath in cumulative fashion starting from 3×10^-7 M to 1×10^-4 M. The histamine-induced increase in atrial rate was allowed to plateau before the next successive concentration was added. After washing and waiting for the recovery of atria rate, a compound was added 5 minutes before repeating the cumulative dose response curve with histamine. A compound is considered an H2 -receptor antagonist if it is able to shift the dose response curve of histamine to the right at a concentration ≤1×10^-5 M. The results are reported in column 5 of Table 1.

A short description of data set [6]: approximate acute toxicity (LD50) in the rat, single oral administration. The note with it: in vivo. As for the experimental part: as §1
In data set [7] the test system is duodenal ulcers induced in rats by cysteamine. Description: inhibition of duodenal ulcers induced in rats by cysteamine. As to conditions: po, rat. In kind it is in vivo. As for the experimental part:
The inhibition of duodenal ulcers, induced in rats by cysteamine, was evaluated for the tested compounds as percentage inhibition of ulcer index [sum of the lesioned areas per rat (mm^2)] according to the method of Fujii Y. et al, Jap. J. Pharm. 25, 663, 1975, and expressed as ED50.

The source of these data is patent publication US4624956A, “Ulcer and gastric secretion inhibiting 4,5,6,7-tetrahydrothiazole[5,4-c]pyridine derivatives” (priority 1983, dated 1986).

Structures can show the parent of a compound that is named as a salt. Where only a bound is given, the exact number is not on record here.

T1 sequence (P47747 whole entry): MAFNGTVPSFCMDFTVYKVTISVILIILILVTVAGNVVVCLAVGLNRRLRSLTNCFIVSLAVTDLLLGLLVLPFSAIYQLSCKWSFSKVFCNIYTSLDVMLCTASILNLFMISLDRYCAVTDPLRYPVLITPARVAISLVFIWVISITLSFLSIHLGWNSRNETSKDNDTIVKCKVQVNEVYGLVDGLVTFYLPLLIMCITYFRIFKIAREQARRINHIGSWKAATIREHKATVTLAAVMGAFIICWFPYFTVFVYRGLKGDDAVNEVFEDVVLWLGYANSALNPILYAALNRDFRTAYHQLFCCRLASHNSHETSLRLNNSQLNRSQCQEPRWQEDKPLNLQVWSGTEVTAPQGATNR

Turning to `CN1[C@@H]2CC[C@H]1C[C@@H](OC(=O)C(CO)c1ccccc1)C2` (stereo partly shown) [Atropine sulfate, reference compound], in data set [1] (oxotremorine i.p., dose of atropine sulfate not given), the “peripheral and central effects induced by oxotremorine” value was “suppressed both peripheral and central effects”.
With `CC(C)NC(=S)N1CCc2nc(N)sc2C1` [Example 2, 2-Amino-5-(isopropyl-thiocarbamoyl)-4,5,6,7-tetrahydrothiazolo[5,4-c]pyridine], the ED50 is 2.7 mg/kg in data set [2], around 5 mg/kg in data set [3] and 1 mg/kg in data set [4]. In data set [5], the LD50 at 168 h was in the range of 400 to 800 mg/kg. For the same compound, the “Anticholinergic activ. (antagonism against oxotremorine syndrome)” value in data set [1] is “Inactive”.
Regarding `CNC(=O)N1CCc2nc(N)sc2C1` [Example 5, 2-Amino-5-(methyl-carbamoyl)-4,5,6,7-tetrahydrothiazolo[5,4-c]pyridine], the ED50 in data set [2] was above 25 mg/kg; in data set [3], 1.2 mg/kg; in data set [4] it was above 5 mg/kg. The compound further gave an LD50 at 168 h in data set [5] of 200 to 400 mg/kg. Moreover, the “Anticholinergic activ. (antagonism against oxotremorine syndrome)” value in data set [1] is “Inactive”.
Turning to `CC(C)NC(=S)N1CCc2nc(NC(=N)N)sc2C1` [Example 15, 2-Guanidino-5-(isopropyl-thiocarbamoyl)-4,5,6,7-tetrahydrothiazolo[5,4-c]pyridine], the ED50 in data set [2] was below 50 mg/kg; in data set [3], 0.5 mg/kg; in data set [4] it was below 5 mg/kg. The Anti-H2 activ. entry at histamine H2-receptor is recorded as “Active”. In data set [5], this compound gave an LD50 at 168 h of 400 to 800 mg/kg. In addition, in data set [1], the “Anticholinergic activ. (antagonism against oxotremorine syndrome)” value was “Inactive”.
Take `CC(C)NC(=O)N1CCc2nc(NC(=N)N)sc2C1` [Example 16, 2-Guanidino-5-(isopropyl-carbamoyl)-4,5,6,7-tetrahydrothiazolo[5,4-c]pyridine]: the ED50 was 2.9 mg/kg in data set [2], 0.017 mg/kg in data set [3], 0.33 mg/kg in data set [4] and 0.4 mg/kg in data set [7]. Besides, the Anti-H2 activ. entry on histamine H2-receptor is listed as “More active”. Further, the LD50 at 168 h is 200 to 400 mg/kg in data set [5] and above 800 mg/kg in data set [6]. The “Anticholinergic activ. (antagonism against oxotremorine syndrome)” value in data set [1] is recorded as “Inactive”.
Regarding `N=C(N)Nc1nc2c(s1)CN(C(=O)NC1CC1)CC2` [Example 22, 2-Guanidino-5-(cyclopropyl-carbamoyl)-4,5,6,7-tetrahydrothiazolo[5,4,-c]pyridine], the ED50 in data set [2] was found to be 20.2 mg/kg; in data set [3] it was 0.08 mg/kg; in data set [4], 1.7 mg/kg; in data set [7], 0.3 mg/kg. The Anti-H2 activ. entry at histamine H2-receptor is reported as “More active”. The LD50 at 168 h in data set [5] and in data set [6] was above 800 mg/kg throughout. Also, the “Anticholinergic activ. (antagonism against oxotremorine syndrome)” value in data set [1] is on record as “Inactive”.
Take `CNC(=C[N+](=O)[O-])NCCSCc1ccc(CN(C)C)o1` [Ranitidine, reference compound]: the ED50 in data set [2] came to 6.2 mg/kg; in data set [3], 0.5 mg/kg; in data set [4] it was 7 mg/kg; in data set [7], 10.7 mg/kg. For the same compound, the LD50 at 168 h in data set [5] and in data set [6] was above 800 mg/kg in each case. Further, the “Anticholinergic activ. (antagonism against oxotremorine syndrome)” value in data set [1] is “Inactive”.

As usually defined, the ED50 is the dose at which the effect has come halfway, by size or by number of responders. A word on the LD50: it is the dose at which mortality reaches 50%. A higher LD50 goes with lower toxicity.
